# Experimental data reported in article PMC6264278, “Corydaline Inhibits Multiple Cytochrome P450 and UDP-Glucuronosyltransferase Enzyme Activities in Human Liver Microsomes” (Molecules, 2011).
# Where two headings read alike, the source gives them in different places.
# Legend:
# Format in all cases: in vitro ADME
# CYP1A2 = molecular target: T1, CYP1A2 (Homo sapiens, UniProt P05177); experiment: CYP1A2 phenacetin O-deethylation inhibition, cocktail assay in pooled human liver microsomes; details: 50 μM phenacetin, no inhibition at 200 μM of corydaline; for IC50 no preincubation, CYP1A2 phenacetin O-deethylation: pooled human liver microsomes (H161)
# T1 construct: using pooled human liver microsomes; tissue BD Gentest Co. H161; host or cells: pooled human liver microsomes
# T1 sequence (P05177 1-516): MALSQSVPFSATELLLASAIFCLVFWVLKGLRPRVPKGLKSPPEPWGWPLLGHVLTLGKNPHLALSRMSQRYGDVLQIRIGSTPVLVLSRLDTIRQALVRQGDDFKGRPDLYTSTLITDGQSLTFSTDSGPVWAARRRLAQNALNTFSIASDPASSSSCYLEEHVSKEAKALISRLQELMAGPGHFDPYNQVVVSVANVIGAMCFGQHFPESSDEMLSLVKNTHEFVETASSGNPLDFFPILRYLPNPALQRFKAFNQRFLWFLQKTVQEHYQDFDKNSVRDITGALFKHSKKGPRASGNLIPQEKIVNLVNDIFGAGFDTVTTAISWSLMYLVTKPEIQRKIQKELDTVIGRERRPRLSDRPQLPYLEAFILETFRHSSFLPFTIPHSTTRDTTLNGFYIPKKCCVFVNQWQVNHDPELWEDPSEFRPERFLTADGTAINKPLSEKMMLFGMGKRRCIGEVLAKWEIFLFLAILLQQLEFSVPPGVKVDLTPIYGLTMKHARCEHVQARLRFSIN
# Protocol: (§1) Phenacetin O-deethylase, coumarin 7-hydroxylase, amodiaquine N-deethylase, diclofenac 4-hydroxylase, S-mephenytoin 4-hydroxylase, bufuralol hydroxylase, and midazolam 1’-hydroxylase activities were determined as probe activities for CYP1A2, CYP2A6, CYP2C8, CYP2C9, CYP2C19, CYP2D6, and CYP3A4, respectively, using cocktail incubation and liquid chromatography-tandem mass spectrometry (LC/MS/MS). The incubation mixtures were prepared in a total volume of 200 μL, as follows: pooled human liver microsomes (0.25 mg/mL), 1.3 mM NADPH, 3.3 mM MgCl2, 50 mM potassium phosphate buffer (pH 7.4), and a cocktail of probe substrates and various concentrations of corydaline (1−200 μM). The substrates were used at concentrations approximately equal to their respective Km values: 50 μM phenacetin, 2.5 μM coumarin, 2.5 μM amodiaquine, 10 μM diclofenac, 100 μM S-mephenytoin, 5 μM bufuralol, and 2.5 μM midazolam. After a 3-min pre-incubation period at 37 °C, the reactions were initiated by addition of an NADP generating system and incubated for 20 min at 37 °C in a shaking water bath. After incubation, the reaction was stopped by placement of the tubes on ice and addition of 100 μL of ice-cold methanol containing internal standards (^13C2,^15N-acetaminophen for acetaminophen and N-desethylamodiaquine, d5-7-hydroxycoumarin for 7-hydroxycoumarin, ^13C6-4-hydroxydiclofenac for 4-hydroxydiclofenac, d3-4-hydroxy-mephenytoin for 4-hydroxymephenytoin and hydroxymidazolam, d9-1-hydroxybufuralol for 1-hydroxybufuralol). The incubation mixtures were then centrifuged at 13,000 × g for 5 min. All incubations were performed in triplicate and the mean values were used. […] The reaction was started by addition of a cocktail of CYP probe substrates.
# All 7 metabolites produced from the cocktail of CYP isoform-specific substrates were simultaneously determined by LC/MS/MS [25]. […] Quantification was performed by selected reaction monitoring (SRM) of the [M+H]^+ ion and the related product ion for each metabolite. […]
# CYP2D6 = molecular target: T2, CYP2D6 (Homo sapiens, UniProt P10635); experiment: CYP2D6 bufuralol 1'-hydroxylation inhibition in pooled human liver microsomes; details: for inhibition mode, CYP2D6 bufuralol 1'-hydroxylation: Lineweaver, Dixon and secondary reciprocal plots; for IC50: 5.0 μM bufuralol, mean ± SD, n = 3
# T2 construct: using pooled human liver microsomes; tissue BD Gentest Co. H161; host or cells: pooled human liver microsomes
# Protocol: as §1
# All 7 metabolites produced from the cocktail of CYP isoform-specific substrates were simultaneously determined by LC/MS/MS [25]. The system consisted of a tandem quadrupole mass spectrometer (TSQ Quantum Access, ThermoFisher Scientific, San Jose, CA, USA) coupled with a Nanospace SI-2 LC system. Separation was performed on an Atlantis dC18 column (5 μm, 2.1 mm i.d. ×100 mm, Waters, Milford, MA, USA) using the gradient elution of a mixture of 5% methanol in 0.1% formic acid (mobile phase A) and 95% methanol in 0.1% formic acid (mobile phase B) at a flow rate of 0.25 mL/min: 10% mobile phase B for 1 min, 10% to 95% mobile phase B for 1 min, 95% mobile phase B for 5 min. The column and autosampler temperatures were 50 and 6 °C, respectively. After 1.5 min, the LC eluent was diverted from waste to the mass spectrometer fitted with the electrospray ionization (ESI) source and operated in positive ion mode. […] Quantification was performed by selected reaction monitoring (SRM) of the [M+H]^+ ion and the related product ion for each metabolite. […]
# Reactions were initiated by addition of NADPH at 37 °C and stopped after 15 min by placement of the incubation tubes on ice and addition of ice-cold methanol (100 μL) containing an internal standard (2.0 μg/mL ^13C6-4-hydroxydiclofenac for diclofenac, 0.5 μg/mL d3-4-hydroxymephenytoin for mephenytoin, or 0.5 μg/mL d9-1-hydroxy-bufuralol for bufuralol). The incubation mixtures were centrifuged at 13,000 × g for 5 min, and aliquots (5 μL) of the supernatants were analyzed by LC/MS/MS. […] Aliquots (5 μL) were analyzed by LC/MS/MS. […]
# CYP3A = experiment: Time- and concentration-dependent inactivation of CYP3A-mediated midazolam hydroxylation in human liver microsomes; details: probe midazolam (1'-hydroxylation), estimated from kobs vs corydaline concentration (10-150 μM)
# Protocol: The inhibitory effects of corydaline toward seven major human CYP isoforms and four major human UGT isoforms were evaluated using cocktail CYP probe substrates and each UGT probe substrate in human liver microsomes, respectively. […] To determine whether midazolam metabolism is inhibited by corydaline, we performed time- and concentration-dependent inactivation assays in human liver microsomes. […] Values for kobs were plotted against corydaline concentration and used for estimation of maximal rates (kinact) and Ki values in human liver microsomes (Figure 2b).
# T2 sequence (P10635 whole entry): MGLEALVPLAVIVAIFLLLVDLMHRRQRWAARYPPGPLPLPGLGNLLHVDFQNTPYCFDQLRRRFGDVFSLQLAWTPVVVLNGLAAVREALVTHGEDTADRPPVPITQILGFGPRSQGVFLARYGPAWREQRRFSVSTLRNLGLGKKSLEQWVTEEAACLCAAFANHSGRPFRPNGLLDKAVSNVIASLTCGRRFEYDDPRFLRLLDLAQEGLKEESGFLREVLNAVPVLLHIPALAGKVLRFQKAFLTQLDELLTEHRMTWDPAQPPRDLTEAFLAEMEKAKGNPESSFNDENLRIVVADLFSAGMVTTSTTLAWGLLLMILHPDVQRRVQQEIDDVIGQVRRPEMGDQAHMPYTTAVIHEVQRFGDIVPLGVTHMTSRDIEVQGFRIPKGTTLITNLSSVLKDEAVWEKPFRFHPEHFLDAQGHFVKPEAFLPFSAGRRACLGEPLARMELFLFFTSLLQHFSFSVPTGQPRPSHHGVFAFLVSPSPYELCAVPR
structure (smiles),measurement,setting,value
"COc1cc2c(cc1OC)C1C(C)c3ccc(OC)c(OC)c3CN1CC2 (stereo not shown) [Corydaline, 2,3,9,10-tetramethoxy-13-methyl-5,8,13,13a-tetrahydro-6H-isoquino[3,2-a]isoquinoline]","IC50 no preincubation, CYP1A2 phenacetin O-deethylation",CYP1A2,negligible inhibition
same,"IC50 no preincubation, CYP1A2 phenacetin O-deethylation",CYP1A2; listed as corydaline,No inhibition **
same,"IC50 with preincubation, CYP1A2 phenacetin O-deethylation",CYP1A2; pre-incubated 30 min with NADPH,No inhibition **
same,"inhibition mode, CYP2D6 bufuralol 1'-hydroxylation",CYP2D6,competitively
same,"inhibition mode, CYP2D6 bufuralol 1'-hydroxylation",CYP2D6; listed as corydaline,competitive
same,Ki,"CYP2D6; human liver microsomes, 0.5-5 μM bufuralol",27.3 ± 0.7 µM
same,IC50,"CYP2D6; pooled human liver microsomes (H161), read-out: IC50 no preincubation, CYP2D6 bufuralol 1'-hydroxylation",64.5 ± 9.8 µM
same,IC50,"CYP2D6; pre-incubated 30 min with NADPH, read-out: IC50 with preincubation, CYP2D6 bufuralol 1'-hydroxylation",116 ± 7.6 µM
same,KI (inactivation),"CYP3A; read-out: apparent Ki of inactivation, CYP3A midazolam hydroxylation",30 µM
same,kinact,"CYP3A; read-out: maximal rate of inactivation (kinact), CYP3A midazolam hydroxylation (converted)",0.00107 s⁻¹
